Columns and labels:
[1] = target: T1, BRD4 (Homo sapiens, UniProt O60885); test: Western blot of BRD4 protein level in OPM2; type: cell-based; details: ARV-771 0.5 nM or 1 nM + rapamycin 20 nM, 24 hours
T1 construct: endogenous in cells; host or cells: OPM2 myeloma cell line
Experimental: (§1) The protein levels were analyzed using Western blot.
Different concentrations of ARV-771 (0, 0.5, 1 nM) and a fixed concentration of rapamycin (20 nM) were added to the myeloma cell line OPM2.

[2] = tested on: DEPDC5 knockout OPM2 cells; test: Cell viability (CellTiter-Lumi) of DEPDC5 knockout OPM2 under immunomodulatory drugs; type: cell-based, human; details: DEPDC5-KO OPM2; drug gradients starting from 1 μM; 5 days
Experimental: (§2) • (1) OPM2 cells in the logarithmic growth phase were seeded in a 96-well plate at 3000 cells/well. The volume of the cell suspension is 90 μl/well. • (2) Each well was added with 10 μl lenalidomide (Len), pomalidomide (Pom), CC-122, or CC-220 down the concentration gradients starting from 1 μM. Control groups with no drug treatment were set. Each drug had 7 gradients with 3 replicates. • (3) The plate was placed in a humidity-controlled environment (37° C., 5% CO2) for 5 days. • (4) Subsequently, 50 μl of CTL solution was added to each well under dark conditions. Then, the plate was placed on a shaker and shaken for 10 minutes, followed by reading on a microplate reader. • (5) The average absorbance values of the 3 replicates were used to plot the cell viability curves of OPM2 under drug treatment.
(§3) Cell viability was measured using the CellTiter-Lumi luminescent cell viability assay kit (Beyotime), with luminescence intensity reflecting cell viability, through an ATP-catalyzed luciferase reaction in the cell culture medium.

[3] = target: T2, GSPT1 (Homo sapiens, UniProt P15170+Q96SW2); test: Western blot of GSPT1 protein level in pancreatic cancer cell line KP4; type: cell-based; set-up: endogenous in cells; host or cells: KP4 pancreatic cancer cell line; details: 24 hours
T2 sequence (P15170 whole entry): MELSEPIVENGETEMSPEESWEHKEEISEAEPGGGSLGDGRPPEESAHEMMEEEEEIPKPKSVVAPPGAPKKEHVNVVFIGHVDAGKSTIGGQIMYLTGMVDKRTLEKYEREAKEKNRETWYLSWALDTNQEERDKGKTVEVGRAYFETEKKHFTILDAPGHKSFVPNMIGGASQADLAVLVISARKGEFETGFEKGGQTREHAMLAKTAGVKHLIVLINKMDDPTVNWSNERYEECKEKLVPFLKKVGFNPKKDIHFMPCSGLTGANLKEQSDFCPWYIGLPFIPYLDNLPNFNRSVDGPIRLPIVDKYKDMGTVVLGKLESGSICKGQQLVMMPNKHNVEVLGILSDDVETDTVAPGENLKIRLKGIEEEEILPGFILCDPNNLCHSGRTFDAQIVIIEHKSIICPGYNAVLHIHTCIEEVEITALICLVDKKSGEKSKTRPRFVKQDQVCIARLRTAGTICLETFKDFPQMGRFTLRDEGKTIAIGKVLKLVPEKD
T2 sequence (Q96SW2 whole entry): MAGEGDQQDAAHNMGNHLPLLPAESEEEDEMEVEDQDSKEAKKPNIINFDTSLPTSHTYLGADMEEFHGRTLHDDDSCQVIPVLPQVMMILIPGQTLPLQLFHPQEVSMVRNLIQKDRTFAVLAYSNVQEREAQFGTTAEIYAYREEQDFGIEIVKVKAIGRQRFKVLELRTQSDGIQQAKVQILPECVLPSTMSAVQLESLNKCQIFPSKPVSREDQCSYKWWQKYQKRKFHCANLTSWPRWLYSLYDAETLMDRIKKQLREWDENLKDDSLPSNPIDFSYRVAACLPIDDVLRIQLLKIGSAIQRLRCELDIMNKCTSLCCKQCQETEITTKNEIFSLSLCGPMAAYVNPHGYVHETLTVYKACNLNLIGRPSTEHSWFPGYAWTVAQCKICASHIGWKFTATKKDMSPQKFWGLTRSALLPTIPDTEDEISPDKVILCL
T2 sequence (Q16531 whole entry partner): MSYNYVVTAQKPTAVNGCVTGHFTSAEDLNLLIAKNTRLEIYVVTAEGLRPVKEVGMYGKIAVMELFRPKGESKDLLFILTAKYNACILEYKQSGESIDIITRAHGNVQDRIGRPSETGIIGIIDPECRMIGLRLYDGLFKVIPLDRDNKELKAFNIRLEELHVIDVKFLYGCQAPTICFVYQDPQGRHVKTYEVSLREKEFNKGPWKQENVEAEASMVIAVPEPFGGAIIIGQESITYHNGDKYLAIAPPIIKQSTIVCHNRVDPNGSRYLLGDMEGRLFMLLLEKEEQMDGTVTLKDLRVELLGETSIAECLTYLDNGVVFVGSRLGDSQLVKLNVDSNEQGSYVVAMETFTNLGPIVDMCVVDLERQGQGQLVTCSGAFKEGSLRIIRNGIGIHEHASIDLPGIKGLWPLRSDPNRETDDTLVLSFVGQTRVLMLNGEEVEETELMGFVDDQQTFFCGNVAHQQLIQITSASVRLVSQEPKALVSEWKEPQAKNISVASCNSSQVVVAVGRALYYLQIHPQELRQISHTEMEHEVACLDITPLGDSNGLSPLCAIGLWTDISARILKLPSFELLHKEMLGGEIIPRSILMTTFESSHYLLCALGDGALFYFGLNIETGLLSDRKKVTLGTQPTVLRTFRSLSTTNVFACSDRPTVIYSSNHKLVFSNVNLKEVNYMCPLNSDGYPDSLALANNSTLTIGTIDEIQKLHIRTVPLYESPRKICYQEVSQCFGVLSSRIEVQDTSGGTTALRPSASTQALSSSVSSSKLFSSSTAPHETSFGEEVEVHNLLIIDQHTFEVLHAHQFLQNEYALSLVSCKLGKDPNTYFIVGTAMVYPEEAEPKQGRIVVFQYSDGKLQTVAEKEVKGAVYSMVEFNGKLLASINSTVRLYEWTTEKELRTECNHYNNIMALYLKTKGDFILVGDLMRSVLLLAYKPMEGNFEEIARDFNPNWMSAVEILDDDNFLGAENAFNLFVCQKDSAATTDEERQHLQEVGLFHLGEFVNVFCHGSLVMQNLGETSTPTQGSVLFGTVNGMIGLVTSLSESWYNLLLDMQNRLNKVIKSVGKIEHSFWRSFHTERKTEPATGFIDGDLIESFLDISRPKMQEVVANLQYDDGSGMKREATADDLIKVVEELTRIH

[4] = target: T2, GSPT1; test: Western blot of GSPT1 protein level in leukemia cell lines HL60 and MOLT-4; type: cell-based; details: degrader (10 nM CC90009) co-administered with varying concentrations of rapamycin; HL60, MOLT-4; 12 h
Experimental: as §1
The samples were collected after 12 h, and the protein levels were examined by the same method as in Embodiment 3.

[5] = tested on: OPM2-P5000; test: Cell viability of pomalidomide-resistant OPM2-P5000 cells; type: cell-based, human; details: CC-92480 3 μM + rapamycin 20 nM, viability at 0, 96, 120 h
Experimental: as §2, §3
Meanwhile, this embodiment provides the following groups for cell viability test in the pomalidomide-resistant myeloma cell line OPM2-P5000: rapamycin alone (20 nM), pomalidomide alone (3 μM), CC-92480 alone (3 μM), combination treatment, and control. Cell viability was assessed on Oh, 96 h and 120 h post drug treatment using the same method as in Embodiment 1.

[6] = target: T3, IKZF3 (Homo sapiens, UniProt Q96SW2+Q9UKT9); test: Western blot of IKZF3 in pomalidomide-resistant OPM2-P5000 and OPM2 cells; type: cell-based; details: pomalidomide-resistant myeloma cell line (OPM2-P5000; FIG. 7b OPM2); rapamycin 20 nM
T3 construct: Cell pellets were collected after 24 h and were lysed using RIPA; The protein levels were analyzed using Western blot; endogenous in cells; host or cells: OPM2, RPMI-8226, U266 myeloma cell lines
T3 sequence (Q9UKT9 whole entry): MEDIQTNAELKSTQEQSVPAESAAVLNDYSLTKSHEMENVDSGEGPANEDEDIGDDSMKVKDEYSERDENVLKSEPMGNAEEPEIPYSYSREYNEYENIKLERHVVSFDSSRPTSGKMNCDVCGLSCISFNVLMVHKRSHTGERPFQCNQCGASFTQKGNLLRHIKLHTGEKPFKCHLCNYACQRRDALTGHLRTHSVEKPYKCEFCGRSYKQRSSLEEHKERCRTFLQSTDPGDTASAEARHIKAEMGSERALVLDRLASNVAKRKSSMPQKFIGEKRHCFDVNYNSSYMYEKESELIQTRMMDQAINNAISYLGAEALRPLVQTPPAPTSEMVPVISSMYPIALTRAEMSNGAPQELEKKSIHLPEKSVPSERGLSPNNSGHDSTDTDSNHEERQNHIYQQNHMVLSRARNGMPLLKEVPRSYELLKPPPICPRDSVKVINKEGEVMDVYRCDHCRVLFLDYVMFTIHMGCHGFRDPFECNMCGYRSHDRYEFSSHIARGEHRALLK
T3 sequence (Q96SW2 whole entry): as the sequence (Q96SW2 whole entry) above
T3 sequence (Q16531 whole entry partner): as the sequence (Q16531 whole entry partner) above
Experimental: as §1
In this embodiment, the myeloma cell line OPM2, which is sensitive to pomalidomide was subjected to long-term high-dose pomalidomide treatment to obtain the pomalidomide-resistant cell line OPM2-P5000. Pomalidomide and CC-92480 (0.5 nM, 25 nM) were administered to OPM2 cells, and pomalidomide and CC-92480 (0.5 nM, 3 μM) were administered to OPM2-P5000 cells. These treatments were combined with a fixed concentration of rapamycin (20 nM).

[7] = target: T4, Wee1 (Homo sapiens, UniProt P30291); test: Western blot of Wee1 protein level in OPM2; type: cell-based; details: ZNL-02-096 10 nM + rapamycin 20 nM, 24 hours
T4 construct: endogenous in cells; host or cells: OPM2 myeloma cell line
T4 sequence (P30291 whole entry): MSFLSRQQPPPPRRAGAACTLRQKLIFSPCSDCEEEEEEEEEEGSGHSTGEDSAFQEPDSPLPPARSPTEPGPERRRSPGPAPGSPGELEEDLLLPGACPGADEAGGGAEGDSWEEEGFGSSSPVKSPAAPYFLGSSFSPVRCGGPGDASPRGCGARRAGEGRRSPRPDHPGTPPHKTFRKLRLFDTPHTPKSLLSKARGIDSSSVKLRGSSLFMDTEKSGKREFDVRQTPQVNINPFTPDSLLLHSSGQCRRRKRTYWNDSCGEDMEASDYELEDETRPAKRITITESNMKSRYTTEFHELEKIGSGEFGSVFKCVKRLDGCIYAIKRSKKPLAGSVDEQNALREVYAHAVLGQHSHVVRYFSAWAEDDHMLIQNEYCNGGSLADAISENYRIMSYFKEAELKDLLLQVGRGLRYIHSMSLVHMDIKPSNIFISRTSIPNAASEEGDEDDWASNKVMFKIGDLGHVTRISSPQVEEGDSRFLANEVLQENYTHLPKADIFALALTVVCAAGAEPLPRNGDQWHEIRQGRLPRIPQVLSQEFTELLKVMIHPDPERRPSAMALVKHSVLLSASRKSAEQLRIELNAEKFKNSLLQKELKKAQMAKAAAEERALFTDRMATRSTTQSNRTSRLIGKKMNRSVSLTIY
Experimental: as §1
Different concentrations of ZNL-02-096 (0, 1, 10 nM) and a fixed concentration of rapamycin (20 nM) were added to the myeloma cell line OPM2.

[8] = target: T5, RBM39 (Homo sapiens, UniProt Q14498); test: Western blot of RBM39 protein level in OPM2; type: cell-based; details: indisulam 1 μM + rapamycin 20 nM, 24 hours
T5 construct: endogenous in cells; host or cells: OPM2 myeloma cell line
T5 sequence (Q14498 1-530): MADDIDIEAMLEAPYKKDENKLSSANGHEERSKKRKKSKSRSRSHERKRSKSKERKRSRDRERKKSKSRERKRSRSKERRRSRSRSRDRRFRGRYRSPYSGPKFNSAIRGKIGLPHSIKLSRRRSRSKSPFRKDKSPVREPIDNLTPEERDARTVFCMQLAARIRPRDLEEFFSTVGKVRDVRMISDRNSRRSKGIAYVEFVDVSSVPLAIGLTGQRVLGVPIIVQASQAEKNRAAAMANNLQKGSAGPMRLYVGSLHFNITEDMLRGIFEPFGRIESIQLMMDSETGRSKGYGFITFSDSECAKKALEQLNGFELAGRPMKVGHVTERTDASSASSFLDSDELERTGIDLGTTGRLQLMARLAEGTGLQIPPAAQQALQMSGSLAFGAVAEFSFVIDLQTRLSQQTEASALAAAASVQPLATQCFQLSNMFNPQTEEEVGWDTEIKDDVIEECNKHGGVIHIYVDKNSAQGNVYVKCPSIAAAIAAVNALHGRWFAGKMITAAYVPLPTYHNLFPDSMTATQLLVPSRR
Experimental: as §1
Different concentrations of indisulam (0, 0.1, 1 μm) and a fixed concentration of rapamycin (20 nM) were added to the myeloma cell line OPM2. After 24 hours, protein levels were analyzed using the same method as in Embodiment 3.

[9] = tested on: MM1S; test: Cell viability, pomalidomide combined with rapamycin, MM1S; type: cell-based, human; details: MM1S (pomalidomide-sensitive); viability at 0, 48, 96, 120 h; P<0.001
Experimental: (§4) • (1) OPM2 cells in the logarithmic growth phase were seeded in a 96-well plate at 3000 cells/well. The volume of the cell suspension is 90 μl/well. • (2) Each well was added with 10 μl lenalidomide (Len), pomalidomide (Pom), CC-122, or CC-220 down the concentration gradients starting from 1 μM. Control groups with no drug treatment were set. […] Then, the plate was placed on a shaker and shaken for 10 minutes, followed by reading on a microplate reader. • (5) The average absorbance values of the 3 replicates were used to plot the cell viability curves of OPM2 under drug treatment.
as §3
(§5) In this embodiment, the pomalidomide-sensitive myeloma cell lines (MM1S, H929 and OPM2) and the pomalidomide-resistant myeloma cell lines (U266 and RPMI-8226) were treated with mTOR signaling pathway inhibitor rapamycin alone, pomalidomide alone, a combination of rapamycin and pomalidomide, and control, respectively. Cell viability was assessed on Oh, 48 h, 96 h and 120 h post drug treatment. The detection used on each day is the same and has been described in Embodiment 1.

[10] = target: IKZF1 (Homo sapiens, UniProt Q13422+Q96SW2)
Chain of IKZF1 (Q16531 whole entry): as the sequence (Q16531 whole entry partner) above
Chain of IKZF1 (Q96SW2 whole entry): as the sequence (Q96SW2 whole entry) above
Chain of IKZF1 (Q13422 whole entry): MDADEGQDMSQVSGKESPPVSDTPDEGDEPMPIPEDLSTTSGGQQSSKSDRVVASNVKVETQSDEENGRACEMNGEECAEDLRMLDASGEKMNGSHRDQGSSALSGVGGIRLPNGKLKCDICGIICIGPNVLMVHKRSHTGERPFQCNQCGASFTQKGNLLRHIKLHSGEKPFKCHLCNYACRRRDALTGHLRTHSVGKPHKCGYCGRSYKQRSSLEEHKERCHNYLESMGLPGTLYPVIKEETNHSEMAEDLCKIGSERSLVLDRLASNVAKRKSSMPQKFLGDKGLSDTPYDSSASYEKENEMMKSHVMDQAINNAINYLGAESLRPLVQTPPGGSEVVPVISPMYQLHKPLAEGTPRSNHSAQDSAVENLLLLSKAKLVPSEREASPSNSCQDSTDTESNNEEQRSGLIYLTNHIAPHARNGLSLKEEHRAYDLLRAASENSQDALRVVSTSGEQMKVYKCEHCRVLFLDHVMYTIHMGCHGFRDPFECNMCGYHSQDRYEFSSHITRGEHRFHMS
Experimental: 25 nM of pomalidomide and varying concentrations of rapamycin were added to myeloma cell lines OPM2, RPMI-8226, and U266, respectively. Cell pellets were collected after 24 h and were lysed using RIPA. The protein levels were analyzed using Western blot.
Different concentrations of ZNL-02-096 (0, 1, 10, 10^2, 10^3 nM) and a fixed concentration of pomalidomide (25 nM) were added to the myeloma cell line OPM2. After 24 hours, protein levels were detected using the same method as in Embodiment 3.

[11] = tested on: RPMI-8226; test: Cell viability, pomalidomide combined with rapamycin, RPMI-8226; type: cell-based, human; details: RPMI-8226 (pomalidomide-resistant); viability at 0, 48, 96, 120 h; P<0.001
Experimental: as §4, §3, §5

[12] = target: T3, IKZF3; test: Western blot of IKZF3 protein level in myeloma cell lines; type: cell-based
[13] = tested on: H929; test: Cell viability, pomalidomide combined with rapamycin, H929; type: cell-based, human; details: H929 (pomalidomide-sensitive); viability at 0, 48, 96, 120 h; P<0.001
Experimental: as §4, §3, §5

[14] = tested on: OPM2; test: Cell viability, pomalidomide combined with rapamycin, OPM2; type: cell-based, human; details: OPM2 (pomalidomide-sensitive); viability at 0, 48, 96, 120 h; P<0.001
Experimental: as §4, §3, §5

[15] = tested on: U266; test: Cell viability, pomalidomide combined with rapamycin, U266; type: cell-based, human; details: U266 (pomalidomide-resistant); viability at 0, 48, 96, 120 h; P<0.001
Experimental: as §4, §3, §5

[16] = pomalidomide 25 nM + varying concentrations of everolimus, OPM2, 24 hours

SMILES: Cc1ncsc1-c1ccc([C@H](C)NC(=O)[C@@H]2C[C@@H](O)CN2C(=O)[C@@H](NC(=O)COCCCOCCNC(=O)C[C@@H]2N=C(c3ccc(Cl)cc3)c3c(sc(C)c3C)-n3c(C)nnc32)C(C)(C)C)cc1 [ARV-771]
- degradation of the substrate BRD4, combination with rapamycin vs alone [1]: stronger degradation effect

SMILES: Cc1nc2cccc(N)c2c(=O)n1C1CCC(=O)NC1=O (stereo not shown) [CC-122]
- cell viability (killing curve) of DEPDC5 knockout cells compared to the control group [2]: exhibit resistance

SMILES: O=C1CC[C@H](N2Cc3c(OCc4ccc(CN5CCOCC5)cc4)cccc3C2=O)C(=O)N1 [CC-220]
- cell viability (killing curve) of DEPDC5 knockout cells compared to the control group [2]: exhibit resistance

SMILES: Cc1ccc(NC(=O)NCc2ccc3c(c2)CN(C2CCC(=O)NC2=O)C3=O)cc1Cl (stereo not shown) [CC-885]
- degradation of the substrate GSPT1, combination with everolimus ([3]; CC-90009 1 μM or CC-885 0.1 μM + everolimus 0.01, 0.1 μM): stronger degradation effect
- degradation of the substrate GSPT1, combination with rapamycin ([3]; CC-90009 1 μM or CC-885 0.1 μM + rapamycin 0.01, 0.1 μM): stronger degradation effect
- level of substrate protein GSPT1 [4]: significantly reduced

SMILES: N#Cc1ccc(N2CCN(Cc3ccc(COc4cccc5c4CN([C@H]4CCC(=O)NC4=O)C5=O)cc3)CC2)c(F)c1 [CC-92480]
- killing effect on myeloma cells, co-administered with rapamycin [5]: stronger killing effect
- degradation of the substrate IKZF3, co-administration with rapamycin [6]: enhance the degradation

SMILES: C=CCn1c(=O)c2cnc(Nc3ccc(N4CCN(CCCNc5cccc6c5C(=O)N(C5CCC(=O)NC5=O)C6=O)CC4)cc3)nc2n1-c1cccc(C(C)(C)O)n1 (stereo not shown) [ZNL-02-096]
- degradation of the substrate Wee1, combination with rapamycin vs alone [7]: stronger degradation effect

SMILES: NS(=O)(=O)c1ccc(S(=O)(=O)Nc2cccc3c(Cl)c[nH]c23)cc1 [indisulam]
- degradation of the substrate RBM39, combination with rapamycin vs alone [8]: stronger degradation effect

SMILES: Nc1cccc2c1CN(C1CCC(=O)NC1=O)C2=O (stereo not shown) [lenalidomide]
- cell viability (killing curve) of DEPDC5 knockout cells compared to the control group [2]: exhibit resistance

SMILES: Nc1cccc2c1C(=O)N(C1CCC(=O)NC1=O)C2=O (stereo not shown) [pomalidomide]
- killing of myeloma cells, combination with rapamycin vs pomalidomide alone [9]: stronger effect in killing myeloma cells
- cell viability (killing curve) of DEPDC5 knockout cells compared to the control group [2]: exhibit resistance
- degradation of IKZF1 ([10]; 25 nM pomalidomide co-administered with rapamycin, OPM2, RPMI-8226, U266, 24 h): enhances the degradation
- degradation of the substrate IKZF1, combination with everolimus [10, 16]: stronger degradation effect
- killing of myeloma cells, combination with rapamycin vs pomalidomide alone [11]: stronger effect in killing myeloma cells
- level of the substrate IKZF3 ([12]; 25 nM pomalidomide co-administered with varying concentrations of rapamycin, OPM2, RPMI-8226, U266, 24 h): significantly reduced
- degradation of the substrate IKZF3, combination with everolimus [12, 16]: stronger degradation effect
- killing of myeloma cells, combination with rapamycin vs pomalidomide alone [13]: stronger effect in killing myeloma cells
- killing of myeloma cells, combination with rapamycin vs pomalidomide alone [14]: stronger effect in killing myeloma cells
- killing of myeloma cells, combination with rapamycin vs pomalidomide alone [15]: stronger effect in killing myeloma cells
- degradation of the substrate IKZF3, co-administration with rapamycin [6]: enhance the degradation

Reference: patent US20260166038A1, “METHOD OF ENHANCING THE EFFICACY OF A TARGETED PROTEIN DEGRADER AND ITS DERIVATIVE THERAPEUTICS” (ShanghaiTech University, priority 2022, published 2026)
